From US20160206633A1, “dhS1P AND USE OF SAME AS AN ANTICANCER THERAPEUTIC AND IMMUNOMODULATOR” (Penn State Research Foundation, Inc., priority 2013, published 2016)

What was measured:
[1] = system: isolated IMCs (GEMM colonies, multipotent myeloid progenitor cells); experiment: CFU-GEMM colony forming assay of isolated IMCs; format: cell-based, athymic nude mice; details: 5 μM, GEMM-supportive semi-solid media, 3 weeks of culture
Protocol: (A) Splenic IMCs (Gr-1+CD11b+, also defined as MDSCs: myeloid-derived suppressor cells) were isolated from MDA-MB-231 tumor-bearing athymic nude mice and exposed to BSA, S1P (5 μM), or dhS1P (5 μM). Following 24-hour culture incubation, cells were labeled with specific antibodies and analyzed by multicolor flow cytometry (red: IMCs; blue: possible B-cells). (B) Splenic IMCs were isolated from MDA-MB-231 tumor-bearing athymic nude mice and cultured (5×10^4 cells/mL) in GEMM-supportive semi-solid media with BSA, S1P (5 μM), or dhS1P (5 μM). GEMM colonies (multipotent myeloid progenitor cells) were visualized and counted after 3 weeks of culture. ANOVA, *p<0.01 compared to no treatment or BSA-treatment, ***p<0.001 compared to S1P-treatment, n≧3. (C) Splenic hematopoietic progenitors (Lineage-Sca-1+CD117+) were isolated from MDA-MB-231 tumor-bearing athymic nude mice and exposed to BSA, S1P (5 μM), or dhS1P (5 μM). Following 24-hour culture incubation, cells were labeled with specific antibodies and analyzed by multicolor flow cytometry. […]
Isolated IMCs from the spleens of tumor-bearing athymic nude mice were cultured (5×10^4 cells/mL) in GEMM-supportive complete (mouse) methylcellulose media (R&D Systems, Minneapolis, Minn.), according to the manufacturer's instructions, with BSA, S1P (5 μM), or dhS1P (5 μM). GEMM colonies were visualized and counted after 3 weeks of culture.

[2] = system: murine Panc-02 pancreatic cancer cells; experiment: Injection of BSA-conjugated sphingolipids into mice with subcutaneous Panc-02 tumors; format: in vivo
Text: (A) Splenic IMCs (Gr-1+CD11b+, also defined as MDSC: myeloid-derived suppressor cells) were isolated from subcutaneous human MDA-MB-231 breast tumor-bearing athymic nude mice, treated with or without dhS1P (to induce the expansion of CD19+CD45R B220+ cells: B-cells), and adoptively transferred into subcutaneous human MDA-MB-231 breast tumor-bearing athymic nude mice before monitoring tumor growth. ANOVA, **p<0.05 compared to PBS control, n≧6. (B) Splenic IMCs were isolated from orthotopic human BxPC-3 pancreatic tumor-bearing athymic nude mice, treated with or without dhS1P, and adoptively transferred into orthotopic human BxPC-3 pancreatic tumor-bearing athymic nude mice before monitoring survival. Logrank test, *p<0.05, n=5. (C) Tumor growth following BSA (lipid carrier control), sphingosine-1-phosphate (S1P), or dhS1P injection every other day, was monitored in C57BL/6J mice engrafted with subcutaneous murine Panc-02 pancreatic cancer cells. ANOVA, **p<0.05 compared to BSA control, n≧6.
Orthotopic pancreatic cancer and subcutaneous breast cancer tumors were established in athymic nude, NOD.CB17-Prkdcscid/J, BALB/cJ, or C57BL/6J mice as previously described (8, 9), with minor modifications. All cell lines used in animal and cellular studies, prior to any modification, were originally obtained from the American Type Culture Collection (Manassas, Va.). For orthotopic BxPC-3-GFP human pancreatic cancer xenografts, 4-6 week old female athymic mice were fully anesthetized with a mixture of ketamine-HCl (129 mg/kg) and xylazine (4 mg/kg) injected intramuscularly. A small incision was made in the left flank, the peritoneum was dissected and the pancreas exposed. Using a 27-gauge needle, 2.5×10^6 cells, prepared in 0.1 mL of Hank's balanced salt solution, were injected into the pancreas. For experimental lung-metastatic osteosarcoma xenografts, 4-6 week old female athymic nude mice were tail vein-injected with 2.5×10^6 human SAOS-2-LM7 cells. […] Tumor size was measured by caliper measurement. […]

Q: How did the CFU-GEMM colony formation [1] turn out when `CCCCCCCCCCCCCCC[C@@H](O)[C@@H](N)COP(=O)(O)O` [dhS1P, dihydrosphingosine-1-phosphate] was run?
A: completely abrogated

Q: And the Life expectancy ([2]; direct injections into pancreatic tumor-bearing mice)?
A: improved

Q: And the Tumor growth ([2]; subcutaneous Panc-02 in C57BL/6J mice, injection every other day, 0.1 mL of 100 μM, BSA carrier)?
A: therapeutic effect
